Assay results taken from PubChem BioAssay AID248 (DTP/NCI, 2004).
Several values for one entry are separate records, joined by “and”; a condition that tells them apart may be missing. Equal entries are not always repeated. Inconclusive results and toxic doses are left out. Cut-off read from the data, not from the text of the source: active = T/C of 150% or more; inactive = T/C below 125%.

System: L1210 leukemia ip in BDF1 mice, survival T/C
Assay: NCI In Vivo Anticancer Drug Screen. Data for tumor model L1210 Leukemia (intraperitoneal) in B6D2F1 (BDF1) mice
Conditions: endpoint: mean survival time, higher = longer survival
In short: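 In this screen, tumor-bearing mice given compound are compared to those given vehicle, and their survival values are reported as a treated-to-control quotient.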

[1] = dose: 100.0 mg/kg/injection, schedule: Q01DX001 (ip), vehicle: carboxymethylcellulose (CMC)
[2] = dose: 200.0 mg/kg/injection, schedule: Q01DX001 (ip), vehicle: carboxymethylcellulose (CMC)
[3] = dose: 400.0 mg/kg/injection, schedule: Q01DX001 (ip), vehicle: carboxymethylcellulose (CMC)
[4] = dose: 100.0 mg/kg/injection, schedule: Q04DX002 (ip), vehicle: saline
[5] = dose: 200.0 mg/kg/injection, schedule: Q04DX002 (ip), vehicle: saline
[6] = dose: 400.0 mg/kg/injection, schedule: Q04DX002 (ip), vehicle: saline
[7] = dose: 100.0 mg/kg/injection, schedule: Q04DX003 (ip), vehicle: saline with Tween-80
[8] = dose: 200.0 mg/kg/injection, schedule: Q04DX003 (ip), vehicle: saline with Tween-80
[9] = dose: 400.0 mg/kg/injection, schedule: Q04DX003 (ip), vehicle: saline with Tween-80
[10] = dose: 100.0 mg/kg/injection, schedule: Q01DX001 (ip), vehicle: saline with Tween-80
[11] = dose: 100.0 mg/kg/injection, schedule: Q01DX009 (ip), vehicle: saline with Tween-80
[12] = dose: 100.0 mg/kg/injection, schedule: Q04DX002 (ip), vehicle: saline with Tween-80
[13] = dose: 200.0 mg/kg/injection, schedule: Q01DX001 (ip), vehicle: saline with Tween-80
[14] = dose: 200.0 mg/kg/injection, schedule: Q01DX009 (ip), vehicle: saline with Tween-80
[15] = dose: 200.0 mg/kg/injection, schedule: Q04DX002 (ip), vehicle: saline with Tween-80
[16] = dose: 400.0 mg/kg/injection, schedule: Q01DX001 (ip), vehicle: saline with Tween-80
[17] = dose: 400.0 mg/kg/injection, schedule: Q01DX009 (ip), vehicle: saline with Tween-80
[18] = dose: 100.0 mg/kg/injection, schedule: Q01DX001 (ip), vehicle: saline
[19] = dose: 200.0 mg/kg/injection, schedule: Q01DX001 (ip), vehicle: saline
[20] = dose: 400.0 mg/kg/injection, schedule: Q01DX001 (ip), vehicle: saline
[21] = dose: 100.0 mg/kg/injection, schedule: Q01DX009 (ip), vehicle: Klucel (hydroxypropylcellulose) (HPC)
[22] = dose: 200.0 mg/kg/injection, schedule: Q01DX009 (ip), vehicle: Klucel (hydroxypropylcellulose) (HPC)
[23] = dose: 400.0 mg/kg/injection, schedule: Q01DX009 (ip), vehicle: Klucel (hydroxypropylcellulose) (HPC)
[24] = dose: 12.5 mg/kg/injection, schedule: Q01DX009 (ip), vehicle: saline with Tween-80
[25] = dose: 25.0 mg/kg/injection, schedule: Q01DX009 (ip), vehicle: saline with Tween-80
[26] = dose: 100.0 mg/kg/injection, schedule: Q04DX003 (ip), vehicle: saline
[27] = dose: 200.0 mg/kg/injection, schedule: Q04DX003 (ip), vehicle: saline
[28] = dose: 50.0 mg/kg/injection, schedule: Q01DX009 (ip), vehicle: saline with Tween-80
[29] = dose: 100.0 mg/kg/injection, schedule: Q04DX002 (ip), vehicle: Klucel (hydroxypropylcellulose) (HPC)
[30] = dose: 200.0 mg/kg/injection, schedule: Q04DX002 (ip), vehicle: Klucel (hydroxypropylcellulose) (HPC)
[31] = dose: 400.0 mg/kg/injection, schedule: Q04DX002 (ip), vehicle: Klucel (hydroxypropylcellulose) (HPC)

Measured: T/C

CCOC(=S)Sc1ccc2c(c1)-c1ccc(F)cc1C2=O
inactive: [1] 111 % of control | [2] 95 % of control | [3] 98 % of control

c1ccc2c(B(c3cccc4ccccc34)c3cccc4ccccc34)cccc2c1
inactive: dose: 100.0 mg/kg/injection, schedule: Q04DX003 (ip), vehicle: Klucel (hydroxypropylcellulose) (HPC) 94 % of control | dose: 200.0 mg/kg/injection, schedule: Q04DX003 (ip), vehicle: Klucel (hydroxypropylcellulose) (HPC) 97 % of control | dose: 400.0 mg/kg/injection, schedule: Q04DX003 (ip), vehicle: Klucel (hydroxypropylcellulose) (HPC) 102 % of control

CC(=O)OCCOc1cccc(C)c1
inactive: [4] 114 % of control | [5] 96 % of control | [6] 107 % of control

SC1(SC2(S)CCCCC2)CCCCC1
inactive: [7] 97 % of control | [8] 101 % of control | [9] 113 % of control

O=C(O)c1ccc(N=Cc2cccc([N+](=O)[O-])c2)cc1
inactive: [10] 106 % of control | [11] 100 % of control and 91 % of control | [12] 97 % of control and 91 % of control | [13] 92 % of control | [14] 98 % of control and 122 % of control | [15] 93 % of control and 91 % of control | [16] 95 % of control | [17] 102 % of control and 88 % of control | dose: 400.0 mg/kg/injection, schedule: Q04DX002 (ip), vehicle: saline with Tween-80 93 % of control and 88 % of control

c1ccc(CN2CCN(CC3CC3)CC2)cc1
inactive: dose: 12.5 mg/kg/injection, schedule: Q04DX003 (ip), vehicle: Klucel (hydroxypropylcellulose) (HPC) 103 % of control | dose: 25.0 mg/kg/injection, schedule: Q04DX003 (ip), vehicle: Klucel (hydroxypropylcellulose) (HPC) 98 % of control | dose: 50.0 mg/kg/injection, schedule: Q04DX003 (ip), vehicle: Klucel (hydroxypropylcellulose) (HPC) 110 % of control

CCOC(=O)C(O)c1ccccc1 (stereo not given)
inactive: [7] 98 % of control | [8] 98 % of control | [9] 98 % of control

O=C(C(=O)c1ccc(O)cc1O)c1ccc(O)cc1O
inactive: [18] 97 % of control | [19] 97 % of control | [20] 97 % of control

CNC(=O)Nc1c(C)cccc1Cl
inactive: [21] 94 % of control | [22] 95 % of control | [23] 105 % of control

CCCOc1ccc(C2=C(c3ccccc3)C(=O)C(c3ccccc3)=C2c2ccccc2)cc1
inactive: [1] 94 % of control | [2] 100 % of control | [3] 94 % of control

CC1CCCCN1C(CC(=O)c1ccccc1)C(=O)c1ccccc1 (stereo not given)
inactive: dose: 50.0 mg/kg/injection, schedule: Q01DX001 (ip), vehicle: saline 97 % of control | [18] 95 % of control | [19] 101 % of control | [20] 101 % of control

O=C(NC(=S)Nc1ccc(F)cc1)c1cccc([N+](=O)[O-])c1
inactive: [24] 97 % of control and 98 % of control | [25] 94 % of control and 97 % of control | dose: 50.0 mg/kg/injection, schedule: Q04DX003 (ip), vehicle: saline with Tween-80 100 % of control | [10] 97 % of control | [12] 101 % of control | [7] 97 % of control | [13] 95 % of control | [15] 93 % of control and 97 % of control

Cc1ccc(NC(=O)Nc2c(C)cccc2C)cc1
inactive: [1] 95 % of control | [2] 95 % of control | [3] 103 % of control

O=C(CC(O)(C(F)(F)F)C(F)(F)F)c1cccnc1
inactive: [21] 98 % of control | [7] 101 % of control | [22] 104 % of control | [8] 103 % of control | [23] 101 % of control | [9] 103 % of control

O=C(Oc1ccc([N+](=O)[O-])cc1)c1ccc(C[n+]2ccccc2)cc1
inactive: dose: 50.0 mg/kg/injection, schedule: Q01DX009 (ip), vehicle: saline 97 % of control | dose: 100.0 mg/kg/injection, schedule: Q01DX009 (ip), vehicle: saline 97 % of control and 104 % of control | [26] 97 % of control | dose: 200.0 mg/kg/injection, schedule: Q01DX009 (ip), vehicle: saline 100 % of control and 106 % of control | [27] 90 % of control

C=C(C(=O)OC1CC2CCC(C1)N2C)c1ccccc1 (stereo not given)
inactive: dose: 1.25 mg/kg/injection, schedule: Q01DX Z (ip), vehicle: saline 90 % of control | dose: 1.25 mg/kg/injection, schedule: Q04DX003 (ip), vehicle: Klucel (hydroxypropylcellulose) (HPC) 113 % of control | dose: 2.5 mg/kg/injection, schedule: Q01DX Z (ip), vehicle: saline 105 % of control | dose: 2.5 mg/kg/injection, schedule: Q04DX003 (ip), vehicle: Klucel (hydroxypropylcellulose) (HPC) 101 % of control | dose: 5.0 mg/kg/injection, schedule: Q01DX Z (ip), vehicle: saline 97 % of control | dose: 5.0 mg/kg/injection, schedule: Q04DX003 (ip), vehicle: Klucel (hydroxypropylcellulose) (HPC) 107 % of control | dose: 10.0 mg/kg/injection, schedule: Q01DX001 (ip), vehicle: carboxymethylcellulose (CMC) 111 % of control | dose: 10.0 mg/kg/injection, schedule: Q04DX003 (ip), vehicle: Klucel (hydroxypropylcellulose) (HPC) 106 % of control | dose: 20.0 mg/kg/injection, schedule: Q01DX001 (ip), vehicle: carboxymethylcellulose (CMC) 93 % of control

OC(CNc1ccccc1)CN1CCOCC1 (stereo not given)
inactive: dose: 100.0 mg/kg/injection, schedule: Q01DX001 (ip), vehicle: other 101 % of control | [26] 100 % of control | dose: 200.0 mg/kg/injection, schedule: Q01DX001 (ip), vehicle: other 96 % of control | [27] 94 % of control | dose: 400.0 mg/kg/injection, schedule: Q01DX001 (ip), vehicle: other 105 % of control | dose: 400.0 mg/kg/injection, schedule: Q04DX003 (ip), vehicle: saline 94 % of control

COc1ccc(C)cc1NC(=O)OCCOc1ccc(NC(C)=O)cc1
inactive: [28] 98 % of control | [11] 95 % of control | [14] 95 % of control

Nc1nccc(Cl)n1
inactive: [24] 89 % of control | [25] 92 % of control | [28] 92 % of control

COc1cc(C=Nc2ccc(C(=O)O)cc2)ccc1N(CCCl)CCCl
inactive: dose: 6.0 mg/kg/injection, schedule: Q01DX001 (ip), vehicle: carboxymethylcellulose (CMC) 107 % of control | dose: 12.0 mg/kg/injection, schedule: Q01DX015 (ip), vehicle: carboxymethylcellulose (CMC) 109 % of control | dose: 12.5 mg/kg/injection, schedule: Q01DX001 (ip), vehicle: carboxymethylcellulose (CMC) 112 % of control

F[Si]1(c2cccc(Br)c2)c2ccccc2-c2ccccc21
inactive: [10] 103 % of control | [11] 103 % of control | [13] 100 % of control | [14] 101 % of control | [16] 100 % of control | [17] 104 % of control

CCCCOB=O
inactive: [11] 96 % of control | [14] 106 % of control | [17] 98 % of control

CC(=O)CSC(=S)OC(C)C
inactive: [4] 112 % of control | [5] 94 % of control | [6] 105 % of control

CCC(CO)NC1CCCCC1 (stereo not given)
inactive: dose: 75.0 mg/kg/injection, schedule: Q01DX001 (ip), vehicle: carboxymethylcellulose (CMC) 88 % of control

CC(C)OC(=O)Nc1cccc(Br)c1
inactive: [29] 92 % of control | [30] 106 % of control | [31] 95 % of control

COc1ccc(C(c2ccc(OC)cc2)C(c2ccc(OC)cc2)c2ccc(OC)cc2)cc1
inactive: [29] 98 % of control | [30] 106 % of control | [31] 103 % of control
